Key:
[1] = Inhibition of p70S6K (unknown origin); design: species or system Homo sapiens
[2] = molecular target: Serine/threonine-protein kinase AKT (Homo sapiens, UniProt P31751+Q9Y243+P31749); assay: Inhibition of Akt (unknown origin); type: protein assay
[3] = molecular target: Voltage-gated inwardly rectifying potassium channel KCNH2 (Homo sapiens, UniProt Q12809); assay: Inhibition of human ERG by patch clamp assay
[4] = Inhibition of Akt/p70S6K in human MDA-MB-436 cells assessed as inhibition of S6 phosphorylation; type: cell-based
[5] = molecular target: hERG (KCNH2) (Homo sapiens, UniProt Q12809); assay: Inhibition of human ERG at 10 uM by patch clamp assay
Sequence of hERG (KCNH2) (Q12809 whole entry): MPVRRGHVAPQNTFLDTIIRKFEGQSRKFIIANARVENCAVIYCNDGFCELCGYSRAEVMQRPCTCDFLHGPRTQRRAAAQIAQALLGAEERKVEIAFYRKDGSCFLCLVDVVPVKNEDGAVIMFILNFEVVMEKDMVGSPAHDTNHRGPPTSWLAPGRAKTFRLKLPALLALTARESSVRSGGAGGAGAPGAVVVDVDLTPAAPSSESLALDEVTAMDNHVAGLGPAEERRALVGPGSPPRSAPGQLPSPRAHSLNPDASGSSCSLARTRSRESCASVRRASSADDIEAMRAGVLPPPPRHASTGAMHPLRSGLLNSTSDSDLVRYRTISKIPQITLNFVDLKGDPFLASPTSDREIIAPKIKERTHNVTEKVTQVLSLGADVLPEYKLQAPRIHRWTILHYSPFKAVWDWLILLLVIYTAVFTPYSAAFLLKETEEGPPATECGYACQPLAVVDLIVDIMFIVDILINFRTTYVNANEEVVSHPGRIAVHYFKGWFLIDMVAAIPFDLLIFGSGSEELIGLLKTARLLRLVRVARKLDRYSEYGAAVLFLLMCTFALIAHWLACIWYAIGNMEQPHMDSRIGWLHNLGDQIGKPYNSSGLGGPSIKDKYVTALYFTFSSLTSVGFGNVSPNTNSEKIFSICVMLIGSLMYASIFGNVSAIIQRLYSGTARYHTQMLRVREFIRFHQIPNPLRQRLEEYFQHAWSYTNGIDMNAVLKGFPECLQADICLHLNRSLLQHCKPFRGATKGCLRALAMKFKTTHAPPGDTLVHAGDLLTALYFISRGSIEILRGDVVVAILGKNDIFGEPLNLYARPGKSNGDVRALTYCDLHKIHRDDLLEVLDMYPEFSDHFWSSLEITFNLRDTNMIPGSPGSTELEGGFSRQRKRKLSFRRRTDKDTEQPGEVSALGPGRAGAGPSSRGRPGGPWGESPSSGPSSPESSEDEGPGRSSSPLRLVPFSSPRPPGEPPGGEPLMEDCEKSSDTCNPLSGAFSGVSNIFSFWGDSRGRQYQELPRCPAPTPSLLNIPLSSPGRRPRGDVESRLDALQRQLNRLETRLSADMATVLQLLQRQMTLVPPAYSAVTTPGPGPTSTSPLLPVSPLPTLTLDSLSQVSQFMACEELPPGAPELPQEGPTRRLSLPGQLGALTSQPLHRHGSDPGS

Sequence of Voltage-gated inwardly rectifying potassium channel KCNH2 (Q12809 whole entry): as above

Row | IC50 [1] | IC50 [2] | IC50 [4] | Structure (SMILES) | IC50 [3] | inhibition at 10 µM [5]
1 | 0.003 µM | > 1 µM | 0.8 µM | Cn1cc(-c2ccc(F)c(C(F)(F)F)c2)nc1C1CCN(c2ncnc(N)c2-c2ccccc2F)CC1 |  | 
2 | 0.0013 µM | 0.26 µM | 0.3 µM | Cn1cc(-c2ccc(F)c(C(F)(F)F)c2)nc1C1CCN(c2ncnc(N)c2C#N)CC1 |  | 
3 | 0.0008 µM | 0.0022 µM | 52 µM | N#Cc1c(N)ncnc1N1CCC(c2nc(-c3ccc(F)c(C(F)(F)F)c3)cn2CCN2CCC2)CC1 |  | 
4 | 0.003 µM | 1.6 µM | 2.3 µM | Cn1cc(-c2ccc(F)c(C(F)(F)F)c2)nc1C1CCN(c2ncnc(N)c2C(N)=O)CC1 | 1.9 µM | 
5 | 0.0022 µM | 0.518 µM | 1.2 µM | COc1c(N)ncnc1N1CCC(c2nc(-c3ccc(F)c(C(F)(F)F)c3)cn2C)CC1 |  | 
6 | 0.002 µM | 0.93 µM | 0.4 µM | Cn1cc(-c2ccc(F)c(C(F)(F)F)c2)nc1C1CCN(c2ncnc(N)c2-c2ccncc2)CC1 |  | 

Further lines, the compound ahead of its results:

Row | Structure (SMILES) | IC50 [1] | IC50 [2] | IC50 [4] | IC50 [3] | inhibition at 10 µM [5]
7 | C=Cc1c(N)ncnc1N1CCC(c2nc(-c3ccc(F)c(C(F)(F)F)c3)cn2CCN2CCC2)CC1 | 0.0026 µM | 0.0042 µM |  | 0.93 µM | 
8 | C=Cc1c(N)ncnc1N1CCC(c2nc(-c3ccc(F)c(C(F)(F)F)c3)cn2CCN(C)C)CC1 | 0.0035 µM | 0.0091 µM |  | 1.1 µM | 
9 | Nc1ncnc(N2CCC(c3nc(-c4ccc(F)c(C(F)(F)F)c4)cn3CCN3CCCCC3)CC2)c1-c1ccc(F)cc1 | 0.018 µM | 0.35 µM |  |  | 
10 | CN(C)CCn1cc(-c2ccc(F)c(C(F)(F)F)c2)nc1C1CCN(c2ncnc(N)c2-c2ccc(F)cc2)CC1 | 0.0073 µM | 0.23 µM |  | 1.2 µM | 
11 | NCC(c1ccc(F)c(C(F)(F)F)c1)N1CCN(c2ncnc(N)c2-c2ccc(F)cc2)CC1 (configuration not stated) | 0.014 µM | > 1 µM | 2.9 µM |  | 
12 | CN(C)CCn1cc(-c2ccc(F)c(C(F)(F)F)c2)nc1C1CCN(c2ncnc(N)c2C(N)=O)CC1 | 0.0035 µM | 0.084 µM | 89 µM | 4 µM | 
13 | Nc1ncnc(N2CCN(C(CN3CCC3)c3ccc(C(F)(F)F)cc3)CC2)c1-c1ccc(F)cc1 (configuration not stated) | 0.0042 µM | > 1 µM | 1.5 µM |  | 
14 | NCC(c1ccc(C(F)(F)F)cc1)N1CCN(c2ncnc(N)c2-c2ccc(F)cc2)CC1 (configuration not stated) | 0.0022 µM | 0.35 µM | 0.4 µM |  | 
15 | Nc1ncnc(N2CCC(c3nc(-c4ccc(F)c(C(F)(F)F)c4)cn3CCN3CCC3)CC2)c1C1CCC1 | 0.006 µM | 0.0073 µM |  | 1.3 µM | 
16 | Cn1cc(-c2ccc(F)c(C(F)(F)F)c2)nc1C1CCN(c2ncnc3[nH]ncc23)CC1 [LY-2584702] |  |  |  |  | 29%
